Experiment [1] has as its target T1, type Ia cephalosporinase from Enterobacter cloacae (Enterobacter cloacae, UniProt P05364).
T1 construct: purchased Miles Laboratories
Nature of the experiment: Cell-free enzyme assay, inhibition of nitrocefin hydrolysis. It counts as biochemical. As for the experimental part: (§1) The test compound is preincubated with enzyme for 20 min. at 30° C. and pH 7. Chromogenic cephalosporin substrate, nitrocefin, is added and its initial rate of hydrolysis is recorded spectrophotometrically. Three enzyme preparations were employed:
(c) the type Ia cephalosporinase from Enterobacter cloacae purchased from Miles Laboratories.
(§2) Included for comparison purposes were the antibiotics cloxacillin and dicloxacillin. I50 (μM) is calculated as the concentration necessary to inhibit the rate of nitrocefin hydrolysis by 50%.

Experiment [2] has as its target T2, constitutive broad-spectrum TEM type beta-lactamase mediated by the resistance transfer factor R1 in Escherichia coli 1263B (Escherichia coli, UniProt P62593).
T2 construct: mediated by the resistance transfer factor R1 in Escherichia coli 1263B; endogenous in cells; host or cells: Escherichia coli 1263B carrying resistance transfer factor R1
The experiment is described as above. It counts as biochemical. The following applies: preincubated with enzyme 20 min, 30° C., pH 7; nitrocefin substrate; read-out: I50, Escherichia coli R1. As for the experimental part: as §1
(b) the constitutive broad-spectrum TEM type beta-lactamase mediated by the resistance transfer factor R1 in Escherichia coli 1263B, and
as §2

Experiment [3] addresses T3, inducible penicillinase from Staphylococcus aureus 1059B (Staphylococcus aureus, UniProt P00807).
T3 construct: the inducible penicillinase from Staphylococcus aureus 1059B; endogenous in cells; host or cells: Staphylococcus aureus 1059B
The experiment is described as above. It counts as biochemical. As for the experimental part: as §1
(a) the inducible penicillinase from Staphylococcus aureus 1059B,
as §2

A further experiment deals with E. Cloacae P99. The experiment can be described thus: In vitro MIC by agar dilution, alone and mecillinam potentiation. It counts as cell-based. As for the experimental part:
(§3) The efficacy of putative β-lactamase inhibitors is assessed by determining the effect of the test compounds on the minimal inhibitory concentrations (MICs) of β-lactamase-sensitive antibiotics against bacterial strains known to produce β-lactamases.
(§4) The antibacterial activity of the β-lactamase inhibitor against the test strains is determined by a standard agar dilution method. Serial two-fold dilutions of the β-lactamase inhibitor are prepared in water to give concentrations 10 times the final desired concentrations. The aqueous dilutions are then further diluted 1:10 in Mueller-Hinton (MH) agar. These agar mixtures are poured into petri plates and allowed to harden. Each plate, including a drug-free control plate, is inoculated by means of a Steers replicator with 0.05 mL of 10^-4 dilutions of the test organisms. The 10^'4 dilutions of the organisms are prepared in MH broth from overnight TS broth cultures. The plates are examined for growth after overnight incubation at 37° C. The lowest drug concentration at which three or fewer colonies are observed is considered to be the MIC.
(§5) The β-lactamase inhibitor is then tested for potentiation of the antibiotic mecillinam. Aqueous solutions are prepared containing serial two-fold dilutions of mecillinam in the presence of the β-lactamase inhibitor at a constant concentration 2-4 fold less than its MIC for the most sensitive of the test organisms. The same procedure as above is then followed. Controls include a drug-free plate and a plate containing the β-lactamase inhibitor at the concentration used in the test. The MIC of mecillinam as a single agent is also determined at the same time.
A general note: In agar dilution the substance is mixed into plates at graded concentrations.

In a further experiment the test system is P. Aeruginosa 5700. The experiment is described as above. It is filed as cell-based. How it is done:
as §3, §4, §5

The test system of another experiment is E. Coli K12R1. The experiment is described as above. It counts as cell-based. The note with it: single agent, Mueller-Hinton agar, overnight 37° C. How it is done: as §3, §4, §5
A further experiment has as its system S. Marcescens S5. The description is as above. It counts as cell-based. The note with it: single agent, Mueller-Hinton agar, overnight 37° C. As for the experimental part: as §3, §4, §5
For the next experiment, the system named is E. Coli ST 323. Described as above. It counts as cell-based. The following applies: single agent, Mueller-Hinton agar, overnight 37° C. As for the experimental part: as §3, §4, §5
A further experiment has as its system E. Coli 7289. The description is as above. It is filed as cell-based. The following applies: single agent, Mueller-Hinton agar, overnight 37° C. How it is done: as §3, §4, §5
[4] abbreviates: preincubated with enzyme 20 min, 30° C., pH 7, nitrocefin substrate, read-out: I50, Enterobacter cloacae.
[5] abbreviates: preincubated with enzyme 20 min, 30° C., pH 7, nitrocefin substrate, read-out: I50, Staphylococcus aureus.
Setting [6] is: Escherichia coli, read-out: MIC.

The values below come from patent US4393003A, “β-Lactamase inhibitors” (Hoffmann-La Roche Inc., priority 1981, dated 1983).

Like-named read-outs stand apart in the source and are kept apart here.

T1 sequence (P05364 21-381): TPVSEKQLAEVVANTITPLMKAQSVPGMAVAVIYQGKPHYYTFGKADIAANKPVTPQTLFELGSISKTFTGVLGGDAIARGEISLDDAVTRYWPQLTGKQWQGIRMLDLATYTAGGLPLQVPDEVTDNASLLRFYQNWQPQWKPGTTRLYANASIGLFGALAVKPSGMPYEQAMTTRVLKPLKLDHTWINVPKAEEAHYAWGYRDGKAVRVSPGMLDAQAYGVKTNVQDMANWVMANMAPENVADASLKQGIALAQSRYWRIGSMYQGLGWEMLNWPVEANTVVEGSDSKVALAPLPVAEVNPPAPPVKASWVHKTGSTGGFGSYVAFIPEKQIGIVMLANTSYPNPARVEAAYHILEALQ
T2 sequence (P62593 24-286 limits assumed): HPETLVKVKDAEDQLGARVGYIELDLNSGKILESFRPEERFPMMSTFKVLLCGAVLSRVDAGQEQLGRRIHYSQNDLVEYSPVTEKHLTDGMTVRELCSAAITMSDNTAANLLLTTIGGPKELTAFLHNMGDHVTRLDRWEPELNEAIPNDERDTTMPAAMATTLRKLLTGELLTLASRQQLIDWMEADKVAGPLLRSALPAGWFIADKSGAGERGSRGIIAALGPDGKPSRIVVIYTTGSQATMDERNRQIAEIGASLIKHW
T3 sequence (P00807 25-281): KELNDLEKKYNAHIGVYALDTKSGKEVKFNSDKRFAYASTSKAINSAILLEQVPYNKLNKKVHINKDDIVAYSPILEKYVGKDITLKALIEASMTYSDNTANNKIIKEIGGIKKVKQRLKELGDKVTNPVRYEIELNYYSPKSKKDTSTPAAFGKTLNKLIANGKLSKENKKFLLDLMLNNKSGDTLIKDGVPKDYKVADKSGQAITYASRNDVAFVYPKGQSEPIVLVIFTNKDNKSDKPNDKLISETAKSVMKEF

Turning to `Cc1onc(-c2ccccc2Cl)c1C(=O)N[C@@H]1C(=O)N2[C@@H]1SC(C)(C)[C@@H]2C(=O)O` [Cloxacillin], the IC50 was determined as 0.0015 µM in [1] (setting [4]), 68 µM in [2] and 365 µM in experiment [3] (setting [5]).
On the same counts, the results for `Cc1onc(-c2c(Cl)cccc2Cl)c1C(=O)N[C@@H]1C(=O)N2[C@@H]1SC(C)(C)[C@@H]2C(=O)O` [Dicloxacillin] are 0.0014 µM, 32 µM and 96 µM.
Regarding `CC1(C)S[C@@H]2[C@H](/N=C/N3CCCCCC3)C(=O)N2[C@H]1C(=O)O` [Mecillinam, mecillinam], the MIC (usually the lowest concentration that inhibits growth of the organism) in the experiment on E. Cloacae P99 (Enterobacter cloacae) was 0.03 µg/mL; in the experiment on P. Aeruginosa 5700 (Pseudomonas aeruginosa), greater than 128 µg/mL; in the experiment with E. Coli K12R1 (setting [6]), 1 µg/mL; in the experiment on S. Marcescens S5 (Serratia marcescens, read-out: MIC) it was 4 µg/mL; in the experiment on E. Coli ST 323 (setting [6]), 4 µg/mL; in the experiment with E. Coli 7289 (setting [6]) it was 32 µg/mL.
With `C[C@]12C[C@@]1(C(=O)O)N1C(=O)C[C@H]1S2(=O)=O` [compound of formula I, [2S-(2α,4α,6α)]-4-Methyl-8-oxo-5-thia-1-azatricyclo[4.2.0.0^2,4]octane-2-carboxylic acid 5,5-dioxide], the MIC result in the experiment on E. Cloacae P99 (E. Cloacae P99, single agent, Mueller-Hinton agar, overnight 37° C.) is “Inert”; in the experiment with P. Aeruginosa 5700 (P. Aeruginosa 5700, single agent, Mueller-Hinton agar, overnight 37° C.), “Inert”; in the experiment with E. Coli K12R1 it was “Inert”; in the experiment with S. Marcescens S5, “Inert”; with E. Coli ST 323, “Inert”; with E. Coli 7289, “Inert”. Besides, the IC50 in [1] turned out to be 69 µM; in [2], 1.1 µM; in experiment [3], 6.7 µM.
